Reference: patent US20140357487A1, “PLANTS HAVING INCREASED TOLERANCE TO HERBICIDES” (BASF SE, priority 2011, published 2014)

Columns and labels:
Rhodococcus HPPD1 = test: HPPD activity assay, Rhodococcus HPPD1; type: biochemical; conditions: normalized on Arabidopsis wild-type HPPD
Procedure: (§1) HPPD produces homogentisic acid and CO2 from 4-hydroxyphenylpyruvate (4-HPP) and O2. The activity assay for HPPD is based on the analysis of homogentisic acid by reversed phase HPLC.
(§2) The assay mixture can contain 150 mM potassium phosphate buffer pH 7.0, 50 mM L-ascorbic acid, 1 μM FeSO4 and 7 μg of purified enzyme in a total volume of 1 ml.
(§3) Inhibitors are dissolved in DMSO (dimethylsulfoxide) to a concentration of 20 mM or 0.5 mM, respectively. From this stock solution serial five-fold dilutions are prepared in DMSO, which are used in the assay. The respective inhibitor solution accounts for 1% of the assay volume. […]
(§4) Activities are normalized by setting the uninhibited enzyme activity to 100%. IC50 values are calculated using non-linear regression. […]
(§5) Inhibitors are dissolved in DMSO (dimethylsulfoxide) to a concentration of 0.5 mM. […] IC50 values are calculated using non-linear regression.
(§6) Using methods which are described in the above examples or well known in the art, purified, recombinant wildtype HPPD enzymes are characterized with respect to their kinetic properties and sensitivity towards HPPD inhibiting herbicides. Apparent michaelis constants (Km) and maximal reaction velocities (Vmax) are calculated by non-linear regression with the software GraphPad Prism 5 (GraphPad Software, La Jolla, USA) using a substrate inhibition model. […]

Blepharisma HPPD = test: HPPD activity assay, Blepharisma HPPD; type: biochemical; conditions: normalized on Arabidopsis wild-type HPPD
Procedure: as §1, §2, §3, §4, §5, §6

[1] = tested on: corn plants, wild type (transgene none); test: Greenhouse testing of corn plants, wild type; type: in vivo, Zea mays; conditions: 5 days after herbicide treatment
Excerpt: Various methods for the production of stably transformed plants are well known in the art. Coumarone-derivative herbicide tolerant soybean (Glycine max) or corn (Zea mays) plants can be produced by a method described by Olhoft et al. (US patent 2009/0049567). Briefly, HPPD or HST encoding polynucleotides are cloned into a binary vector using standard cloning techniques as described by Sambrook et al. (Molecular cloning (2001) Cold Spring Harbor Laboratory Press). The final vector construct contains an HPPD or HST encoding sequence flanked by a promoter sequence (e.g. the ubiquitin promoter (PcUbi) sequence) and a terminator sequence (e.g. the nopaline synthase terminator (NOS) sequence) and a resistance marker gene cassette (e.g. AHAS) (FIG. 2). Optionally, the HPPD or HST gene can provide the means of selection. Agrobacterium-mediated transformation is used to introduce the DNA into soybean's axillary meristem cells at the primary node of seedling explants. After inoculation and co-cultivation with Agrobacteria, the explants are transferred to shoot induction medium without selection for one week. The explants are subsequently transferred to shoot induction medium with 1-3 μM imazapyr (Arsenal) for 3 weeks to select for transformed cells. Explants with healthy callus/shoot pads at the primary node are then transferred to shoot elongation medium containing 1-3 μM imazapyr until a shoot elongates or the explant dies. After regeneration, transformants are transplanted to soil in small pots, placed in growth chambers (16 hr day/8 hr night; 25° C. day/23° C. night; 65% relative humidity; 130-150 mE m−2 s−1) and subsequently tested for the presence of the T-DNA via Taqman analysis. After a few weeks, healthy, transgenic positive, single copy events are transplanted to larger pots and allowed to grow in the growth chamber. Transformation of corn plants is done by a method described by McElver and Singh (WO 2008/124495). Plant transformation vector constructs containing HPPD or HST sequences are introduced into maize immature embryos via Agrobacterium-mediated transformation. Transformed cells are selected in selection media supplemented with 0.5-1.5 μM imazethapyr for 3-4 weeks. Transgenic plantlets are regenerated on plant regeneration media and rooted afterwards. Transgenic plantlets are subjected to TaqMan analysis for the presence of the transgene before being transplanted to potting mixture and grown to maturity in greenhouse. Arabidopsis thaliana is transformed with HPPD or HST sequences by floral dip method as described by McElver and Singh (WO 2008/124495). Transgenic Arabidopsis plants are subjected to Tag Man analysis for analysis of the number of integration loci. Transformation of Oryza sativa (rice) are done by protoplast transformation as described by Peng et al. (U.S. Pat. No. 6,653,529)
Transgenic plants expressing heterologous HPPD or HST enzymes are tested for tolerance against coumarone-derivative herbicides in greenhouse experiments.
For post emergence treatment, the test plants are first grown to a height of 3 to 15 cm, depending on the plant habit, and only then treated with the herbicides. For this purpose, the test plants are either sown directly and grown in the same containers, or they are first grown separately and transplanted into the test containers a few days prior to treatment.
Depending on the species, the plants are kept at 10-25° C. or 20-35° C. The test period extends over 3 weeks. During this time, the plants are tended and their response to the individual treatments is evaluated. […] Tolerance to coumarone-derivative herbicides can also be assessed in Arabidopsis. In this case transgenic Arabidopsis thaliana plants are assayed for improved tolerance to coumarone-derivative herbicides in 48-well plates. Seeds are surface sterilized by stirring for 5 min in ethanol+water (70+30 by volume), rinsing one time with ethanol+water (70+30 by volume) and two times with a sterile, deionized water. […]

## COCCOCc1c(Cl)ccc(C2=C(O)c3ncccc3C(C)(C)S2(=O)=O)c1Cl [Inhibitor 3, 7-[2,4-dichloro-3-(2-methoxyethoxymethyl)phenyl]-5,5-dimethyl-6,6-dioxo-thiopyrano[4,3-b]pyridin-8-ol]
Rhodococcus HPPD1
  Normalized tolerance index TI: 1.6
Blepharisma HPPD
  Normalized tolerance index TI: 0.5

## CC1=NOC(c2c(Cl)ccc(C3=C(O)c4ncccc4C(C)(C)S3(=O)=O)c2Cl)C1 (stereo not shown) [Inhibitor 1, 7-[2,4-dichloro-3-(3-methyl-4,5-dihydroisoxazol-5-yl)phenyl]-5,5-dimethyl-6,6-dioxo-thiopyrano[4,3-b]pyridin-8-ol]
Rhodococcus HPPD1
  Normalized tolerance index TI: 39
Blepharisma HPPD
  Normalized tolerance index TI: 12.4

## CC1(C)c2cccnc2C(O)=C(c2ccc(Cl)nc2Cl)S1(=O)=O [Inhibitor 2, 7-(2,6-dichloro-3-pyridyl)-5,5-dimethyl-6,6-dioxo-thiopyrano[4,3-b]pyridin-8-ol]
[1]; 2.5 g/ha
  Injury evaluation, scale of 1-100, bleaching phenotype: 20
[1]; 10 g/ha
  Injury evaluation, scale of 1-100, bleaching phenotype: 45
[1]; 40 g/ha
  Injury evaluation, scale of 1-100, bleaching phenotype: 33

## Cc1c(C(=O)c2cnn(C)c2O)ccc(S(C)(=O)=O)c1C1=NOCC1 [Topramezone, reference compound]
[1]; 6.25 g/ha
  Injury evaluation, scale of 1-100, bleaching phenotype: 0
[1]; 25 g/ha
  Injury evaluation, scale of 1-100, bleaching phenotype: 0
[1]; 100 g/ha
  Injury evaluation, scale of 1-100, bleaching phenotype: 0
